Where a name gives a salt, the structure may show the parent alone. Read-outs that look alike come from different tables or passages of the source.
Legend:
malignant tumor patients = test: Preliminary and overall therapeutic effect in malignant tumor patients; type: in vivo, human; conditions: continuous administration for two weeks and rest for one week
Method: The malignant tumor patients those were diagnosed definitely and had failed standard treatment or lacking standard treatment were recruited for phase I study of tolerance and preliminary therapeutic effect. The tolerance was observed when patients were administered 5 mg or 10 mg of the capsules of dihydrochloride of Compound I once daily respectively for at least 2 cycles continuously, wherein each cycle was 28 days.
After the adjustment of the dosage regimen, the malignant tumor patients those were diagnosed definitely and had failed standard treatment or lacking standard treatment were recruited, continuous administrating for 2 weeks and resting for 1 week were applied, i.e., 3 weeks (21 days) was a treatment cycle, and the observation of tolerance was continuously performed and maintained at least 2 cycles (42 days), and the observation of therapeutic effects was performed at the same time.

[1] = Pharmacokinetics of single administration in solid tumour subjects; type: in vivo; conditions: human, plasma, single oral administration
Method: (§1) All the solid tumour subjects participating in the tolerance research in Example 3 were performed a monitor of plasma concentration to evaluate pharmacokinetic parameters of the capsule of Compound I dihydrochloride. • (1) Pharmacokinetics of Single Administration
After beginning the tests, the qualified subjects took the capsule of Compound I dihydrochloride once and performed pharmacokinetic studies of single administration.

[2] = Pharmacokinetics of continuous administration (2 weeks, rest 1 week) in solid tumour subjects; type: in vivo; conditions: human, plasma, oral
Method: as §1
The qualified subjects took the drug once and performed pharmacokinetic monitor of single administration. After subjecting to at least 7 days of a washout period, pharmacokinetic studies of continuous administration were performed. One treating cycle has continuous administration for 2 weeks and rest for 1 week, and continuous monitor were applied for at least 2 cycles. A total of 21 subjects in 3 dose groups (10 mg, 16 mg and 12 mg, respectively) continuously took the capsules of Compound I dihydrochloride, while performing the monitor of plasma concentration.

## COc1cc2c(Oc3ccc4[nH]c(C)cc4c3F)ccnc2cc1OCC1(N)CC1 [Compound I dihydrochloride, 1-[[[4-(4-fluoro-2-methyl-1H-indol-5-yl)oxy-6-methoxyquinolin-7-yl]oxy]methyl]cyclopropylamine dihydrochloride]
Malignant tumor patients
  therapeutic effects, overall: various tumours can benefit

## COc1cc2c(Oc3ccc4[nH]c(C)cc4c3F)ccnc2cc1OCC1(N)CC1 [Compound I, 1-[[[4-(4-fluoro-2-methyl-1H-indol-5-yl)oxy-6-methoxyquinolin-7-yl]oxy]methyl]cyclopropylamine]
[1]; 10 mg/person, n = 4, mean
  AUC(0-inf): 570 ng·h/mL
  AUC(0-t): 327 ng·h/mL
  Cmax: 6.07 ng/mL
  MRT: 142 h
  Tmax: 6.75 h
[1]; 10 mg/person, n = 4, mean, read-out: t1/2 (converted)
  half-life: 88.9 h
[1]; 12 mg/person, n = 11, mean
  AUC(0-inf): 1160 ng·h/mL
  AUC(0-t): 938 ng·h/mL
  Cmax: 11.3 ng/mL
  MRT: 162 h
  Tmax: 8.73 h
[1]; 12 mg/person, n = 11, mean, read-out: t1/2 (converted)
  half-life: 92 h
[1]; 16 mg/person, n = 4, mean
  AUC(0-inf): 1720 ng·h/mL
  AUC(0-t): 1330 ng·h/mL
  Cmax: 16.1 ng/mL
  MRT: 163 h
  Tmax: 10 h
[1]; 16 mg/person, n = 4, mean, read-out: t1/2 (converted)
  half-life: 96.7 h
[1]; read-out: half-life period (t1/2)
  half-life: 80 to 100 h
[2]; 10 mg/person, n = 3, average (RSD %)
  Cmax: 64.9 ng/mL
[2]; 12 mg/person, n = 15, average (RSD %)
  Cmax: 67 ng/mL
[2]; 16 mg/person, n = 3, average (RSD %)
  Cmax: 93.1 ng/mL

Reference: US10251876B2, “Method for treating tumour, pharmaceutical composition and medicinal kit” (CHIA TAI TIANQING PHARMACEUTICAL GROUP CO., LTD., priority 2014, dated 2019)
